Source: ChEMBL document CHEMBL5512665, “A CARM1 Inhibitor Potently Suppresses Breast Cancer Both In Vitro and In Vivo” (J Med Chem, 2024)
Active and inactive are the calls of the source. The rule behind the calls is not given here.

How the values were obtained:
MCF7 [1] = assay: Antiproliferative activity against human MCF7 cells assessed as reduction in cell growth incubated for 7 days by celltiter 96 aqueous one solution cell proliferation assay; conditions: MCF7, 168 h
[2] = Toxicity in BALB/C mouse xenografted with human MCF7 cells assessed as change in body weight at 25 mg/kg,ip administrated every other day for 29 days; type: organism-based; conditions: in vivo, 696 h, time 29 day
[3] = Toxicity in BALB/C mouse xenografted with human MCF7 cells assessed as change in lung morphology at 50 mg/kg,ip administrated every other day for 29 days; type: organism-based; conditions: in vivo, 696 h, time 29 day
[4] = Toxicity in BALB/C mouse xenografted with human MCF7 cells assessed as change in kidney morphology at 25 mg/kg,ip administrated every other day for 29 days; type: organism-based; conditions: in vivo, 696 h, time 29 day
MCF7 [5] = assay: Antitumor activity against human MCF7 cells xenografted in BALB/C mouse assessed as downregulation of NRIP1 gene expression at 50 mg/kg,ip administrated every other day for 29 days by RT-qPCR analysis; type: functional, organism-based; conditions: time 29.0 day
MCF7 [6] = assay: Antitumor activity against human MCF7 cells xenografted in BALB/C mouse assessed as upregulation of IFNalpha gene expression at 50 mg/kg,ip administrated every other day for 29 days by RT-qPCR analysis; type: functional, organism-based; conditions: time 29.0 day
MCF7 [7] = assay: Antitumor activity against human MCF7 cells xenografted in BALB/C mouse assessed as upregulation of ISG15 gene expression at 25 mg/kg,ip administrated every other day for 29 days by RT-qPCR analysis; type: functional, organism-based; conditions: time 29.0 day
MCF7 [8] = assay: Antitumor activity against human MCF7 cells xenografted in BALB/C mouse assessed as upregulation of ISG15 gene expression at 50 mg/kg,ip administrated every other day for 29 days by RT-qPCR analysis; type: functional, organism-based; conditions: time 29.0 day
MCF7 [9] = assay: Antitumor activity against human MCF7 cells xenografted in BALB/C mouse assessed as upregulation of CCL5 gene expression at 25 mg/kg,ip administrated every other day for 29 days by RT-qPCR analysis; type: functional, organism-based; conditions: time 29.0 day
MDA-MB-231 [10] = assay: Antitumor activity against human MDA-MB-231 cells xenografted in BALB/C mouse assessed as inhibition of tumor growth at 25 mg/kg,ip administrated daily for 11 days; type: functional, organism-based; conditions: time 11.0 day
MDA-MB-231 [11] = assay: Antitumor activity against human MDA-MB-231 cells xenografted in BALB/C mouse assessed as reduction of tumor weight at 50 mg/kg,ip administrated daily for 11 days; type: functional, organism-based; conditions: time 11.0 day
[12] = Toxicity in BALB/C mouse xenografted with human MDA-MB-231 cells assessed as change in body weight at 25 mg/kg,ip administrated daily for 11 days; type: organism-based; conditions: in vivo, 264 h, time 11 day
[13] = Toxicity in BALB/C mouse xenografted with human MDA-MB-231 cells assessed as change in body weight at 50 mg/kg,ip administrated daily for 11 days; type: organism-based; conditions: in vivo, 264 h, time 11 day
[14] = Toxicity in BALB/C mouse xenografted with human MDA-MB-231 cells assessed as change in heart morphology at 50 mg/kg,ip administrated daily for 11 days; type: organism-based; conditions: in vivo, 264 h, time 11 day
[15] = Toxicity in BALB/C mouse implanted with mouse 4T1 cells assessed as change in heart morphology at 50 mg/kg,ip administrated daily for 14 days; type: organism-based; conditions: in vivo, 336 h, time 14 day
4T1 [16] = assay: Antitumor activity against mouse 4T1 cells implanted in BALB/C mouse assessed as downregulation of C-Myc gene expression at 25 mg/kg,ip administrated daily for 14 days by RT-qPCR analysis; type: functional, organism-based; conditions: time 14.0 day
4T1 [17] = assay: Antitumor activity against mouse 4T1 cells implanted in BALB/C mouse assessed as downregulation of TFF1 gene expression at 25 mg/kg,ip administrated daily for 14 days by RT-qPCR analysis; type: functional, organism-based; conditions: time 14.0 day
4T1 [18] = assay: Antitumor activity against mouse 4T1 cells implanted in BALB/C mouse assessed as downregulation of NRIP1 gene expression at 25 mg/kg,ip administrated daily for 14 days by RT-qPCR analysis; type: functional, organism-based; conditions: time 14.0 day
4T1 [19] = assay: Antitumor activity against mouse 4T1 cells implanted in BALB/C mouse assessed as downregulation of PGR gene expression at 25 mg/kg,ip administrated daily for 14 days by RT-qPCR analysis; type: functional, organism-based; conditions: time 14.0 day
4T1 [20] = assay: Antitumor activity against mouse 4T1 cells implanted in BALB/C mouse assessed as upregulation of ISG15 gene expression at 25 mg/kg,ip administrated daily for 14 days by RT-qPCR analysis; type: functional, organism-based; conditions: time 14.0 day
4T1 [21] = assay: Antitumor activity against mouse 4T1 cells implanted in BALB/C mouse assessed as upregulation of DDX58 gene expression at 25 mg/kg,ip administrated daily for 14 days by RT-qPCR analysis; type: functional, organism-based; conditions: time 14.0 day
MCF7 [22] = assay: Synergistic antiproliferative activity against human MCF7 cells assessed as downregulation of TFF1 gene expression at 2.5 uM incubated for 6 hrs in presence of tamoxifen by RT-qPCR analysis; type: functional, cell-based
MCF7 [23] = assay: Synergistic antiproliferative activity against human MCF7 cells assessed as downregulation of GREB1 gene expression at 2.5 uM incubated for 6 hrs in presence of fulvestrant by RT-qPCR analysis; type: functional, cell-based
MCF7 [24] = assay: Synergistic antitumor activity against human MCF7 cells xenografted in BALB/C mouse assessed as reduction in tumor size at 25 mg/kg,ip administrated every other day for 15 days in presence of 5 mg/kg tamoxifen oral administration; type: functional, organism-based; conditions: time 15.0 day
MCF7 [25] = assay: Potentiation of etoposide induced antiproliferative activity against human MCF7 cells assessed as upregulation of IFNalpha gene expression at 2.5 uM in presence of etoposide by RT-qPCR analysis; type: functional, cell-based
MCF7 [26] = assay: Potentiation of etoposide induced antiproliferative activity against human MCF7 cells assessed as upregulation of CCL5 gene expression at 2.5 uM in presence of etoposide by RT-qPCR analysis; type: functional, cell-based
4T1 [27] = assay: Potentiation of etoposide induced antiproliferative activity against mouse 4T1 cells assessed as inhibition of colony formation at 2.5 uM incubated for 10 days in presence of etoposide by crystal violet staining based analysis; type: functional, cell-based; conditions: time 10.0 day
4T1 [28] = assay: Potentiation of etoposide induced antiproliferative activity against mouse 4T1 cells assessed as upregulation of IFNalpha gene expression at 2.5 uM in presence of etoposide by RT-qPCR analysis; type: functional, cell-based
4T1 [29] = assay: Potentiation of etoposide induced antiproliferative activity against mouse 4T1 cells assessed as upregulation of CCL5 gene expression at 2.5 uM in presence of etoposide by RT-qPCR analysis; type: functional, cell-based
4T1 [30] = assay: Potentiation of etoposide induced antitumor activity against mouse 4T1 cells implanted in BALB/C mouse assessed as reduction in tumor size at 25 mg/kg,ip administrated daily for 12 days in presence of 8 mg/kg etoposide administration; type: functional, organism-based; conditions: time 12.0 day
4T1 [31] = assay: Potentiation of etoposide induced antitumor activity against mouse 4T1 cells implanted in BALB/C mouse assessed as reduction in tumor weight at 25 mg/kg,ip administrated daily for 12 days in presence of 8 mg/kg etoposide administration; type: functional, organism-based; conditions: time 12.0 day
4T1 [32] = assay: Potentiation of etoposide induced antitumor activity against mouse 4T1 cells implanted in BALB/C mouse assessed as upregulation of IFIT1 gene expression at 25 mg/kg,ip administrated daily for 12 days in presence of 8 mg/kg etoposide administration by RT-qPCR analysis; type: functional, organism-based; conditions: time 12.0 day

## Cc1ccc(-c2nc(N3CCN(CCN(C)C)CC3)ncc2-c2ccoc2)cc1.Cl.Cl
MCF7 [1]
  EC50: 1800 nM
[2]
  Activity: Non-Toxic
[3]
  Activity: Non-Toxic
[4]
  Activity: Non-Toxic
MCF7 [5]
  Activity: Active
MCF7 [6]
  Activity: Active
MCF7 [7]
  Activity: Active
MCF7 [8]
  Activity: Active
MCF7 [9]
  Activity: Active
MDA-MB-231 [10]
  Activity: Active
MDA-MB-231 [11]
  Activity: Active
[12]
  Activity: Non-Toxic
[13]
  Activity: Non-Toxic
[14]
  Activity: Non-Toxic
[15]
  Activity: Non-Toxic
4T1 [16]
  Activity: Active
4T1 [17]
  Activity: Active
4T1 [18]
  Activity: Active
4T1 [19]
  Activity: Active
4T1 [20]
  Activity: Active
4T1 [21]
  Activity: Active
MCF7 [22]
  Activity: Active
MCF7 [23]
  Activity: Active
MCF7 [24]
  Activity: Active
MCF7 [25]
  Activity: Active
MCF7 [26]
  Activity: Active
4T1 [27]
  Activity: Active
4T1 [28]
  Activity: Active
4T1 [29]
  Activity: Active
4T1 [30]
  Activity: Active
4T1 [31]
  Activity: Active
4T1 [32]
  Activity: Active
